From ChEMBL document CHEMBL1201862, “PubChem BioAssay data set” (2004)
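Dose response: 5 concentrations. Exposure: 48 h. Format: 96-well plates. Endpoint: linear interpolation; highest concentration if not reached. The concentration for 50% growth inhibition is given as GI50.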 Active and inactive are the calls of the source. Rule as the data show it: active = GI50 up to about 1.1 µM and inactive = higher.

Columns and labels:
Assay in all cases: NCI-60 cell line screen, 48 h
ACHN = system: ACHN
SK-MEL-5 = system: SK-MEL-5
SK-MEL-2 = system: SK-MEL-2
T47D = system: T47D
MDA-MB-231 = system: MDA-MB-231
TK-10 = system: TK-10
MOLT-4 = system: MOLT-4
NCI-H460 = system: NCI-H460
MDA-N = system: MDA-N
UACC-257 = system: UACC-257
BT-549 = system: BT-549
COLO 205 = system: COLO 205
EKVX = system: EKVX
PC-3 = system: PC-3
DU-145 = system: DU-145
K562 = system: K562
CCRF-CEM = system: CCRF-CEM
SR = system: SR
IGROV-1 = system: IGROV-1
HCT-15 = system: HCT-15

SMILES	GI50 (ACHN)	GI50 (SK-MEL-5)	GI50 (SK-MEL-2)	GI50 (T47D)	GI50 (MDA-MB-231)	GI50 (TK-10)	GI50 (MOLT-4)	GI50 (NCI-H460)	GI50 (MDA-N)	GI50 (UACC-257)	GI50 (BT-549)	GI50 (COLO 205)	GI50 (EKVX)	GI50 (PC-3)	GI50 (DU-145)	GI50 (K562)	GI50 (CCRF-CEM)	GI50 (SR)	GI50 (IGROV-1)	GI50 (HCT-15)
c1ccc(CNc2c3c(nc4ccccc24)CCC3)cc1	17.5 µM (inactive)	11.7 µM (inactive)	13.8 µM (inactive)	12.7 µM (inactive)	12.9 µM (inactive)	13 µM (inactive)	13.1 µM (inactive)	10.6 µM (inactive)	14.7 µM (inactive)	13.6 µM (inactive)	17.9 µM (inactive)	10.4 µM (inactive)	12.1 µM (inactive)	13.2 µM (inactive)	21.5 µM (inactive)	5.58 µM (inactive)	3.79 µM (inactive)	13.4 µM (inactive)	15.8 µM (inactive)	18.9 µM
O=C1/C(=C\c2cccc(Oc3ccccc3)c2)S(=O)(=O)C(c2ccccc2)N1c1cccc(Cl)c1 (stereo not given)	71.8 µM (inactive)	43.9 µM (inactive)	> 100 µM (inactive)	46.8 µM (inactive)	> 100 µM (inactive)	> 100 µM (inactive)	30.1 µM (inactive)	88.3 µM (inactive)	25.9 µM (inactive)	74.6 µM (inactive)	45.8 µM (inactive)	69.8 µM (inactive)	51.1 µM (inactive)	> 100 µM (inactive)	65.5 µM (inactive)	26.4 µM (inactive)	11.1 µM (inactive)	20.9 µM (inactive)	38.9 µM (inactive)	40.6 µM
O=C1CC2SC(COCc3ccccc3)(CCN2Cc2ccccc2)C1 (stereo not given)	82.2 µM (inactive)	19.5 µM (inactive)	> 100 µM (inactive)	54.6 µM (inactive)	> 100 µM (inactive)	19.9 µM (inactive)	30.3 µM (inactive)	54.6 µM (inactive)	71.4 µM (inactive)	37.1 µM (inactive)	51.1 µM (inactive)	39.1 µM (inactive)	64.3 µM (inactive)	35 µM (inactive)	> 100 µM (inactive)	38.1 µM (inactive)	65 µM (inactive)	35.2 µM (inactive)	> 100 µM (inactive)	40.6 µM
